Experimental data: patent US20030144360A1, “Composition and method for modulating BAR/FXR receptor activity” (Allergan Sales, Inc., priority 2001, published 2003)
Where “and” joins values, the source holds several entries; their conditions need not be identical. Identical values can stand only once.

Key:
BAR:RXR heterodimers = target: T1, BAR:RXR heterodimers (UniProt P19793+Q62735); assay: Co-activator (GRIP1) gel shift displacement assay, BAR:RXR heterodimer; assay type: binding
T1 construct: nucleic acid regions encoding the following full-length proteins were cloned into a CMV expression vector; made in house; host or cells: receptors: in vitro translation; GST-GRIP1: E. coli
T1 sequence (Q62735 1-469): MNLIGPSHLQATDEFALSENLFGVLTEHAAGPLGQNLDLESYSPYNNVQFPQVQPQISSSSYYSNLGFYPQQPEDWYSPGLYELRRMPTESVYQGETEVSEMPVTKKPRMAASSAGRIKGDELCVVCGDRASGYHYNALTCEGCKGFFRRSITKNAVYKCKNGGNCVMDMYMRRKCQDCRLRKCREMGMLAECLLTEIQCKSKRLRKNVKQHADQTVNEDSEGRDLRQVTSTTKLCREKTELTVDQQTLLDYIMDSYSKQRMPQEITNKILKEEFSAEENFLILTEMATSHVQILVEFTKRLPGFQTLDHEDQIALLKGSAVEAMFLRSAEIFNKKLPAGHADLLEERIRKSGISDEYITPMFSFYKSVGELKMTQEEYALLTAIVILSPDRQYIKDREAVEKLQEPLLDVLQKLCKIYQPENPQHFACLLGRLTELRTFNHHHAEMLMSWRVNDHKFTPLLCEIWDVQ
T1 sequence (P19793 1-462): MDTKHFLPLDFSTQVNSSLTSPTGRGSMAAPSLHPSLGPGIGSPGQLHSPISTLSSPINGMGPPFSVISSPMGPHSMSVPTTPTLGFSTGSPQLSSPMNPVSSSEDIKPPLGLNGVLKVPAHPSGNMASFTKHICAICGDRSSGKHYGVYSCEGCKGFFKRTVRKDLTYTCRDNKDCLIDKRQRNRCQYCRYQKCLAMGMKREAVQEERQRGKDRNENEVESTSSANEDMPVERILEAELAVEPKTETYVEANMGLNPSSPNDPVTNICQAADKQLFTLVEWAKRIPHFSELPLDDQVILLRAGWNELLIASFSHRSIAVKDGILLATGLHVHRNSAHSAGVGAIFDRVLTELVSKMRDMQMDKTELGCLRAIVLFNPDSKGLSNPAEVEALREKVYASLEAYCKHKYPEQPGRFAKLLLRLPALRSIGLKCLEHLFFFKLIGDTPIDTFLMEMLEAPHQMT
From the text: Coactivators, which bind agonist-activated nuclear receptors including, without limitation, RAR and RXR, function to assist the activated nuclear receptor exert its activity as a transcription factor. Characterized co-activators include CBP, p300, RIP140, SRC-1, ACTR, TIF2 (also called GRIP 1) and TIFI. In most cases coactivator will not bind the receptor in the absence of an agonist, moreover, receptor antagonists will often block coactivator binding, either directly or through the recruitment of a corepressor. Coactivator recruitment assays are therefore a valuable method for directly visualizing associative changes to a receptor caused by the addition of a prospective ligand.
GRIP 1 was expressed as a fusion protein with glutathione-S-transferase, an enzyme which selectively binds glutathione and can thus be used as an affinity reagent. See e.g., U.S. Pat. No. 5,654,176. The GST-GRIP1 fusion protein was expressed in E. coli and purified on glutathione-Sepharose columns. In vitro translated BAR/FXR\RXR (0.6-1.2 μl each) and GST-GRIP 1 (5 μg) were incubated for 30 min at room temperature with 100,000 cpm of the E. coli DNA polymerase Klenow fragment-labeled probes in 10 mM Tris (pH 8.0), 50 mM KCl, 6% glycerol, 0.05% NP-40, 1 mM DTT, 12.5 ng/μl poly dI-dC, and the indicated ligands. Complexes were electrophoresed through 5% polyacrylamide gel in […] (45 mM Tris-base, 45 mM boric acid, 1 mM EDTA) at room temperature. Oligonucleotide probes were made to identify specific receptor dimers; an optimized DR-1 (direct repeat 1; a nucleotide sequence motif to which RXR will bind) probe (5′-[…]) (SEQ ID NO: 12) was used for RXR homodimers and the IR-1 sequence of the IBABP promoter, to which the BAR/RXR heterodimer binds, was used for BAR/RXR heterodimers.
We next tested the ability of AGN34 to displace the GRIP-1 co-activator from BAR. […] Competition experiments using the BAR/RXRm heterodimer binds yielded the same results as obtained using the BAR/RXR heterodimer. (FIG. 4D).

MFXR / HRXRop = target: T2, MFXR / HRXRop (UniProt P19793+Q60641); assay: Co-transfection luciferase assay, EcRE × 6 reporter, MFXR + HRXRop;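 also: CV-1 African green monkey cells, liposome transfection with a β-galactosidase vector serving as internal control, luciferase chemiluminescence read after roughly 40 h compound exposure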
T2 sequence (Q60641 1-488): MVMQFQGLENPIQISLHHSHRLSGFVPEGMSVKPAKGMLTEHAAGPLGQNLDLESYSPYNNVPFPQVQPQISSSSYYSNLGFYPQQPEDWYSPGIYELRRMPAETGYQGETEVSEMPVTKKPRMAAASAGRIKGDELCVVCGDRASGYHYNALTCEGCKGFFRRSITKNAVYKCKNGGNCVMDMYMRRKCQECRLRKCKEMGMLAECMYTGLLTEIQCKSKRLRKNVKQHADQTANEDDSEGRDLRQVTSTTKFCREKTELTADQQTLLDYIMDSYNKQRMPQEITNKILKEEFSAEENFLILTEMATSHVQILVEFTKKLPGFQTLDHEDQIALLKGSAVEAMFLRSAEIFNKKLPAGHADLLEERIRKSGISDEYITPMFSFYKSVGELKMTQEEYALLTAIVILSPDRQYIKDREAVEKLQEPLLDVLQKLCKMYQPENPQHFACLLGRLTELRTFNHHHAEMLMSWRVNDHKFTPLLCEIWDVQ
T2 sequence (P19793 1-462): T1 sequence (P19793 1-462)
Method: CV-1 African Green Monkey cells were grown in Dulbecco's Modified Eagle's medium supplemented with 10% resin-charcoal stripped fetal bovine serum (FBS), 50 U/ml penicillin G and 50 μg/ml streptomycin sulfate (DMEM-FBS) at 37° C. in 5% CO2. One day prior to transfection, cells were plated to 50-80% confluence using phenol red-free DMEM-FBS. Cells were transiently transfected by lipofection as described in Forman et al., 81 Cell 687 (1995). Liposomes (N-[1-(2,3-dioleoyloxy)propyl]-N,N,N-ammonium methyl sulfate, sold by Boehringer Mannheim under the name DOTAP) were formed according to the manufacturer's instructions. The liposomes contained reporter gene constructs (300 ng/10^5 cells); cytomegalovirus driven expression vectors (25 ng/10^5 cells) were added as indicated along with CMX-Bgal (500 ng/10^5 cells) as an internal control. After 2 hours the liposomes were removed and replaced with fresh media. Cells were incubated for approximately 40 hours with phenol red-free DMEM-FBS containing the indicated compounds. After exposure to the specified ligand, the cells were harvested.
The harvested cells were assayed for the presence of luciferase activity. Cells were lysed in 0.1 M KPO4 (pH 7.8), 1.0% TRITON® X-100, 1.0 mM dithiolthreitol (DTT) and 2 mM ethylenediamine tetracetic acid (EDTA). Luciferase activity was measured by reaction of the cell lysates with luciferin in a reaction buffer comprising: 20 mM tricine, 1.07 mM Mg(CO3)4-Mg(OH)2-5H2O, 2.67 mM MgSO4.7H2O, 0.1 mM EDTA, 0.5 mM Sodium luciferin, 0.15 mg/ml Coenzyme A, 5 mM DTT, and 0.5 mM adenosine triphosphate (ATP). Resulting chemiluminescence was measured in a luminometer. […] All points were assayed in triplicate and varied by less than 15%. Each experiment was repeated three or more times with similar results.
As shown below, in most cases hRXRop was recombinantly coexpressed with one other of the indicated receptor constructs, so as to permit the formation of hetero-or homodimers containing hRXRop.
Expression of the luciferase reporter gene product was detected and quantified as described above.

## CCCCCCOc1c(\C(C)=C/C=C/C(C)=C/C(=O)O)cc(C(C)C)cc1C(C)C [AGN 34, (2E, 4E, 6Z)-7-(2-Hexyloxy-3,5-diisopropylphenyl)-3-methylocta-2,4,6-trienoic Acid]
BAR:RXR heterodimers
  doses for full displacement of co-activator, LG 268 versus RXR:BAR-CDCA complexes: Much lower doses
BAR:RXR heterodimers; 0.75 μM AGN 29 as agonist, increasing concentrations of AGN 34
  dissociation of BAR:RXR:GRIP1 complex: progressive dissociation of that complex
BAR:RXR heterodimers; heterodimers in which LG 268 was added
  displacement of co-activator (GRIP1): fully displaces
MFXR / HRXRop; 0.1 μM LG268 + 0.01 μM AGN 34
  Fold Activation: 27.08 fold
  Reporter Activity: 6.73
MFXR / HRXRop; 0.1 μM LG268 + 0.1 μM AGN 34
  Fold Activation: 1.56 fold
  Reporter Activity: 0.39
MFXR / HRXRop; 0.1 μM LG268 + 1 μM AGN 34
  Fold Activation: 1.07 fold
  Reporter Activity: 0.27
MFXR / HRXRop; 0.1 μM LG268 + 3 μM AGN 34
  Fold Activation: 1.04 fold
  Reporter Activity: 0.26
MFXR / HRXRop; 0.1 μM LG268 + 10 μM AGN 34
  Fold Activation: 1.18 fold
  Reporter Activity: 0.29
MFXR / HRXRop; 10 μM AGN 34 alone
  Fold Activation: 1.18 fold and 1.39 fold
  Reporter Activity: 0.26 and 0.35
MFXR / HRXRop; 50 μM CDCA + 0.01 μM AGN 34
  Fold Activation: 19.61 fold
  Reporter Activity: 4.37
MFXR / HRXRop; 50 μM CDCA + 0.1 μM AGN 34
  Fold Activation: 10.99 fold
  Reporter Activity: 2.45
MFXR / HRXRop; 50 μM CDCA + 1 μM AGN 34
  Fold Activation: 6.19 fold and 5.26 fold
  Reporter Activity: 1.38
MFXR / HRXRop; 50 μM CDCA + 3 μM AGN 34
  Fold Activation: 5.77 fold
  Reporter Activity: 1.29
MFXR / HRXRop; 50 μM CDCA + 10 μM AGN 34
  Fold Activation: 6.11 fold
  Reporter Activity: 1.36

## Cc1cc2c(cc1/C(=C/c1ccc(C(=O)O)cc1)[Si](C)(C)C)C(C)(C)CCC2(C)C [AGN 29, (Z)-4-[2-(3,5,5,8,8-Pentamethy1-5,6,7,8-tetrahydronaphthalen-2-yl)-2-(trimethylsilyl)vinyl]benzoic Acid]
BAR:RXR heterodimers; 0.75 μM
  formation of BAR:RXR:GRIP1 complex: form a complex
